Legend:
[1] = system: human mammary epithelial cell line MCF-10A; experiment: MTT assay, toxicity towards normal cells; type: cell-based; conditions: 72 h
Description: (§1) The cell lines used were purchased from American Type Culture Collection (ATCC, Manassas, VA, USA). Human breast cancer cells MCF-7 and MDA-MB-231, human mammary epithelial cell line MCF-10A, and mouse BALB/3T3 embryonic fibroblasts were cultured as already described by some of us. The murine macrophage cell line RAW 264.7 was maintained in Dulbecco’s Modified Eagle’s Medium (DMEM) high glucose (4.5 g/L) supplemented with 10% Fetal Bovine Serum (FBS), 1% L-glutamine, and 100 units/mL of penicillin/streptomycin. The cell cultures were maintained at the temperature of 37 °C in a humidified atmosphere containing 5% CO2.
(§2) The 3-(4,5-dimethylthiazol-2-yl)-2,5-diphenyl-2H-tetrazolium bromide (MTT) assay (Sigma Aldrich (St. Louis, MO, USA)) was carried out to study the in vitro anticancer activities of the complexes, following the previously reported protocol. The cells were incubated for 72 h with different concentrations of the tested compounds (0.1, 1, 10, 25, 50, 100, and 500 µM) and the IC50 values were calculated from the percent (%) of control using the software GraphPad Prism 9 (GraphPad Software, La Jolla, CA, USA).

MCF-7 = experiment: MTT cell viability assay; type: cell-based, human
Description: as §1, §2

MDA-MB-231 = experiment: MTT cell viability assay; type: cell-based, human
Description: as §1, §2

[2] = target: T1, human topoisomerase I (hTopoI) (Homo sapiens, UniProt P11387); experiment: Human topoisomerase I relaxation assay; type: biochemical; conditions: 50 µM, supercoiled pHOT1 DNA
T1 construct: purchased TopoGEN, Port Orange, FL, USA
T1 sequence (P11387 1-765): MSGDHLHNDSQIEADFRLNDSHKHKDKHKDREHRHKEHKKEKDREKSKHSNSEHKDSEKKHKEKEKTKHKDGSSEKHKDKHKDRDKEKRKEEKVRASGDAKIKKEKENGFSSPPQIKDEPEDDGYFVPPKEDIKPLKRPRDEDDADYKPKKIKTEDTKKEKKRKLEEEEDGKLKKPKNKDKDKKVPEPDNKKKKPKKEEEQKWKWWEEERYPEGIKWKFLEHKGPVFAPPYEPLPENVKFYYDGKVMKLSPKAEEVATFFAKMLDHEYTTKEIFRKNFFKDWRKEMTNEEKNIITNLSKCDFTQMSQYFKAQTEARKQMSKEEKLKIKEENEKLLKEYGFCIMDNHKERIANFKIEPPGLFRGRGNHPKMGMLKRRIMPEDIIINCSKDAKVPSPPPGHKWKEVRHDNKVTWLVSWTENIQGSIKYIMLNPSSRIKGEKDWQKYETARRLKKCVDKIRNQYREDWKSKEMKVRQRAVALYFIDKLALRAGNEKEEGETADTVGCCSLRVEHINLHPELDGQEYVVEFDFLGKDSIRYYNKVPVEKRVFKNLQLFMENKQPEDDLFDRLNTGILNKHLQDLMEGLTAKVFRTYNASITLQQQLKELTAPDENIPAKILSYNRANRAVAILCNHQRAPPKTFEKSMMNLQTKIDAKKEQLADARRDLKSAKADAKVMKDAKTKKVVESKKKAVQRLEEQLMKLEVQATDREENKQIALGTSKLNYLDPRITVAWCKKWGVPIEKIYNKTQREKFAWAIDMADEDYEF
Description: The human topoisomerase I relaxation assay was performed as reported in [86]. Shortly, the recombinant human topo I (TopoGEN, Port Orange, FL, USA) was incubated with the super-coiled pHOT1, in the presence or not of the tested compounds, at the indicated concentrations. The reaction products were then allowed to separate through the agarose gel electrophoresis, and ethidium bromide-stained DNA was visualized under UV light.

[3] = DPPH radical scavenging assay; type: biochemical
Description: The radical scavenging properties of the complexes on the 1,1-diphenyl-2-picrylhydrazil (DPPH) radical were evaluated as previously described.
All the complexes were used at different concentrations (10, 25, 50, 100, and 200 µg/mL) and the DPPH radical scavenging activity, measured at 517 nm using a microplate reader, was expressed as inhibition percentages (%IDPPH) compared to the initial concentration of DPPH (control) according to the following expression:(2) IDPPH (%)=ABSCTRL−ABSsample/ABSCTRL∗100 where ABSCTRL and ABSsample are the absorbance at 517 nm in the control and in the presence of samples, respectively.
The obtained IDPPH percentages allowed us to calculate the IC50 values using Graph-Pad Prism 9 software (GraphPad Inc., San Diego, CA, USA). Trolox was employed as a positive control, while caffeine and theophylline were reference compounds.

[4] = ABTS radical scavenging assay; type: biochemical
Description: The radical scavenging properties of the complexes on a 2,20-azino-bis(3-ethylbenzothiazoline-6-sulfonate) radical cation (ABTS^+) were evaluated as previously described.
All the complexes were used at different concentrations (5, 10, 25, 50, and 100 µg/mL) and the ABTS radical scavenging activity, measured at 730 nm using a microplate reader, was expressed as inhibition percentages (%IABTS) compared tothe control, according to the following expression:(3) IABTS (%)=ABSCTRL−ABSsample/ABSCTRL∗100 where ABSCTRL and ABSsample are the absorbance at 730 nm in the control and in the presence of samples, respectively.
IC50 values were calculated from the %IABTS using GraphPad Prism 9 software (GraphPad Inc., San Diego, CA, USA). Trolox was employed as a positive control, while caffeine and theophylline were reference compounds.

[5] = system: NO production in LPS-stimulated RAW 264.7 macrophages; experiment: Griess assay, NO production; type: cell-based, murine; conditions: 25 µM, LPS 1 µg/mL, 24 h
Description: The Griess assay was performed using RAW 264.7 murine macrophages to study the anti-inflammatory activity in terms of NO production. RAW 264.7 cells were plated in the 48 multi-wells and, after 24 h, treated with the tested molecules (25 µM) and the lipopolysaccharide (LPS, Sigma Aldrich, Milan, Italy) at a final concentration of 1 µg/mL. LPS is able to induce inflammation by stimulating NO production in immune system cells such as macrophages. After 24 h, the cell medium Griess reagent (Sigma Aldrich, Milan, Italy) was mixed in with a ratio of 1:1. The Griess reagent allowed for the quantification of NO released by macrophages in the treatment medium. The mixture was left for 30 min under agitation and, subsequently, the absorbance at 540 nm was measured using a multiplate reader. The obtained absorbance allowed us to calculate the NO production % compared to the absorbance obtained for the positive control, in which the cells were treated with LPS.

[6] = system: Salmonella typhimurium (ATCC 14028); experiment: MIC/MBC broth dilution; type: cell-based
Description: (§3) The bacterial strains used for MIC and MBC value determinations expressed as µg/mL by the broth dilution method, according to CLSI guidelines, were the following:
(§4) Increasing concentrations of the complexes (50, 70, 100, 150, and 200 µg/mL) were incubated with bacteria plated in 96-well microplates at 37 °C overnight as already reported, and then bacterial growth was checked at a wavelength of 600 nm using a Multiskan spectrophotometer (model Multiskan Ex Microplate; Thermo Scientific, Nyon, Switzerland). MIC or MBC values were obtained by comparing cell density with a positive control (bacterial cells grown in LB medium were added with only the vehicle, DMSO). […] Ampicillin, Gentamicin, and Cephalosporin (Sigma Aldrich A9393) were used as the control for strain sensitivity.

[7] = system: Pseudomonas aeruginosa (ATCC 15442); experiment: MIC/MBC broth dilution; type: cell-based
Description: as §3, §4

[8] = system: Staphylococcus epidermidis (ATCC 14990); experiment: MIC/MBC broth dilution; type: cell-based
Description: as §3
(§5) -3 Gram-positive: Enterococcus faecalis (ATCC® 19433^TM), Staphylococcus aureus (ATCC® 23235^TM), and Staphylococcus epidermidis (ATCC® 14990™).
(§6) Increasing concentrations of the complexes (50, 70, 100, 150, and 200 µg/mL) were incubated with bacteria plated in 96-well microplates at 37 °C overnight as already reported, and then bacterial growth was checked at a wavelength of 600 nm using a Multiskan spectrophotometer (model Multiskan Ex Microplate; Thermo Scientific, Nyon, Switzerland). MIC or MBC values were obtained by comparing cell density with a positive control (bacterial cells grown in LB medium were added with only the vehicle, DMSO). The results were representative of three independent experiments performed in triplicate. Ampicillin, Gentamicin, and Cephalosporin (Sigma Aldrich A9393) were used as the control for strain sensitivity.

[9] = system: Enterococcus faecalis (ATCC 19433); experiment: MIC/MBC broth dilution; type: cell-based
Description: as §3, §5, §6

[10] = system: Staphylococcus aureus (ATCC 23235); experiment: MIC/MBC broth dilution; type: cell-based
Description: as §3, §5, §6

[11] = system: Escherichia coli (ATCC 25922); experiment: MIC/MBC broth dilution; type: cell-based
Description: as §3
(§7) -4 Gram-negative: Escherichia coli (ATCC® 25922^TM) and Klebsiella pneumoniae (ATCC® 13883^TM);
as §6

[12] = system: Klebsiella pneumoniae (ATCC 13883); experiment: MIC/MBC broth dilution; type: cell-based
Description: as §3, §7, §6

Cn1c(=O)c2c(n(C)c1=O)[n+](C)cn2C1CCCCC1O (stereo not shown) [P-L2, 9-[Cyclohexan-2-ol]-1,3,7-trimethylxantinium Iodide]
IC50 ([1]; Homo sapiens, MCF-10A): > 100 µM
IC50 (MCF-7; Homo sapiens, MCF7, 72 h): > 100 µM
IC50 (MDA-MB-231; Homo sapiens, MDA-MB-231, 72 h): > 100 µM

Cn1c(=O)c2c(n(C)c1=O)[n+](C)cn2CC(O)c1ccccc1 (stereo not shown) [P-L1, 9-[(2-Hydroxy-2-phenyl)ethyl]-1,3,7-trimethylxanthinium Iodide]
IC50 ([1]; Homo sapiens, MCF-10A): > 100 µM
IC50 (MCF-7; Homo sapiens, MCF7, 72 h): > 100 µM
IC50 (MDA-MB-231; Homo sapiens, MDA-MB-231, 72 h): > 100 µM

N.N.[Cl][Pt][Cl] [Cisplatin, reference compound]
IC50 [1]: 78.2 ± 1.2 µM
IC50 (MCF-7; 72 h): 26.2 ± 1.1 µM
IC50 (MDA-MB-231; 72 h): 32.2 ± 1 µM
Inhibition of hTopo I supercoil relaxing activity [2]: inhibited the hTopoI activity

Cc1c(C)c2c(c(C)c1O)CCC(C)(C(=O)O)O2 (stereo not shown) [Trolox, reference compound]
IC50 [3]: 47 ± 1.2 µM
IC50 [4]: 54.5 ± 0.9 µM

Cn1c(=O)c2c(n(C)c1=O)[n+](C)cn2CCO [P-L3]
IC50 ([1]; Homo sapiens, MCF-10A): > 100 µM
IC50 (MCF-7; Homo sapiens, MCF7, 72 h): > 100 µM
IC50 (MDA-MB-231; Homo sapiens, MDA-MB-231, 72 h): > 100 µM

Cn1c(=O)c2c(n(C)[c]([Au-][I])[n+]2C2CCCCC2O)n(C)c1=O (stereo not shown) [AuL2, 1,3,7-Trimethylxanthin-9-[cyclohexan-2-ol-8-ylidene]Au(I) Iodide]
Reduction in NO production [5]: ~12.64%
IC50 [1]: > 100 µM
M.B.C. S. typhimurium [6]: > 200 µg/mL
M.I.C. S. typhimurium [6]: 150 µg/mL
M.B.C. P. aeruginosa [7]: > 125 µg/mL
M.I.C. P. aeruginosa [7]: 100 µg/mL
IC50 (MCF-7; 72 h): > 100 µM
IC50 (MDA-MB-231; 72 h): > 100 µM
M.B.C. S. epidermidis [8]: > 125 µg/mL
M.I.C. S. epidermidis [8]: 100 µg/mL
M.B.C. E. faecalis [9]: > 200 µg/mL
M.I.C. E. faecalis [9]: 150 µg/mL
M.B.C. S. aureus [10]: > 200 µg/mL
M.I.C. S. aureus [10]: 150 µg/mL
IC50 [3]: > 500 µM
M.B.C. E. coli [11]: > 200 µg/mL
M.I.C. E. coli [11]: 150 µg/mL
M.B.C. K. pneumoniae [12]: > 200 µg/mL
M.I.C. K. pneumoniae [12]: 150 µg/mL
IC50 [4]: 155.5 ± 1 µM

Cn1c(=O)c2[nH]cnc2n(C)c1=O [Theophylline, reference compound]
IC50 ([1]; Homo sapiens, MCF-10A): > 500 µM
IC50 (MCF-7; Homo sapiens, MCF7, 72 h): > 500 µM
IC50 (MDA-MB-231; Homo sapiens, MDA-MB-231, 72 h): > 500 µM
M.I.C. S. epidermidis [8]: >200 µg/mL
MIC ([8]; Staphylococcus epidermidis, ATCC14990, read-out: M.I.C. S. epidermidis): > 200 µg/mL
M.I.C. E. faecalis [9]: >200 µg/mL
MIC ([9]; Enterococcus faecalis, ATCC19433, read-out: M.I.C. E. faecalis): > 200 µg/mL
M.I.C. S. aureus [10]: >200 µg/mL
MIC ([10]; Staphylococcus aureus, ATCC23235, read-out: M.I.C. S. aureus): > 200 µg/mL
IC50 [3]: > 500 µM
IC50 DPPH scavenging [3]: did not show any scavenging capacity
M.I.C. E. coli [11]: >200 µg/mL
MIC ([11]; Escherichia coli, ATCC25922): > 200 µg/mL
M.I.C. K. pneumoniae [12]: >200 µg/mL
MIC ([12]; Klebsiella pneumoniae, ATCC13883, read-out: M.I.C. K. pneumoniae): > 200 µg/mL
IC50 [4]: > 500 µM
IC50 ABTS scavenging [4]: did not show any scavenging capacity
